Patent US7989008B2, “Cosmetic preparations designed to reduce unsightly cellulite” (Menarini Industrie Farmaceutiche Riunite S.R.L., priority 2007, dated 2011)

These compounds were tested on tissue affected by cellulite (surface temperature of the skin) (assay: Liquid-crystal thermography, indirect instrumental assessment of treatment efficacy). Conditions: after repeated treatment.
Type: in vivo, women
From the text: Liquid-crystal thermography was used to conduct an indirect instrumental assessment of the efficacy of the treatment. On the basis of the surface temperature, this technique distinguishes between normal adipose tissue and tissue affected by cellulite, in which the reduced blood flow causes progressive cooling of the skin, proportional to the severity of the cosmetic problem. After repeated treatment with compound (I), the difference in temperature between the normal skin area (unaffected by cellulite) and the affected area had reduced considerably, about 70% of the temperature reduction previously observed having been eliminated. The effects of treatment with compounds A and B were evaluated for comparison purposes.

| Compound | temperature difference between normal skin area and area affected by cellulite eliminated |
| --- | --- |
| CC1(C)C(=O)NN=C1c1ccc(NC2=C(Cc3cccc(C#N)c3)C(=O)CCC2)c(F)c1F [Compound A, 3-[2-[4-(4,4-dimethyl-5-oxo-4,5-dihydro-1-H-pyrazol-3-yl)-2,3-difluoro-phenylamine]-6-oxocyclohex-1-enylmethyl]-benzonitrile] | ~50% |
| CC1(C)C(=O)NN=C1c1ccc(NC2=C(Cc3ccc(F)cc3)C(=O)CCC2)cc1F [Compound B, 5-{4-[2-(4-fluoro-benzyl)-3-oxo-cyclohex-1-enylamine]-2-fluoro-phenyl}-4,4-dimethyl-2,4-dihydro-pyrazol-3-one] | ~50% |
| CC1(C)C(=O)NN=C1c1ccc(NC2=C(Cc3ccc(F)cc3)C(=O)CCC2)c(F)c1F [Compound of formula (I), 5-{4-[2-(4-fluoro-benzyl)-3-oxo-cyclohex-1-enylamine]-2,3-difluoro-phenyl}-4,4-dimethyl-2,4-dihydropyrazol-3-one] | about 70% |
